Experimental findings from US20250368623A1, “PYRIDAZINONE-DERIVED COMPOUNDS FOR THE MODULATION OF MYC AND FOR MEDICAL USES” (GENETIC INTELLIGENCE, INC, priority 2022, published 2025) are described below.

Structures are written as SMILES.

Holding throughout (type): cell-based
Test [1] relates to MYC protein. Nature of the test: Western blot of MYC protein in human cancer cell lines. The settings on record: about 1 μM, 2-day incubation, e.g., A549 or HepG2, GAPDH loading control, vs DMSO. How it is done: The level of reduction of MYC protein following treatment with test compounds is also assessed by Western blot according to the following protocol. The human cancer cell lines (e.g., A549 or HepG2) are seeded at 20,000 cells per well in a 96-well plate. After 1 day, the cells are treated with test compounds at a final concentration of about 1 μM. After a 2-day incubation period, the supernatant is removed from the wells and RIPA buffer is added to create cell lysates. The lysates are analyzed by Western blot and probed with a MYC-specific antibody (e.g., Proteintech 10828-1-AP) together with a GAPDH-specific antibody (e.g., Proteintech 10494-1-AP) to serve as loading control. The intensities of Western blot bands are quantified by FIJI (Image J). The relative expression value of MYC following treatment with a test compound is calculated by dividing the intensity of the MYC band of the sample with the intensity of its own GAPDH band. The value so obtained is presented as a percentage of that of the no-compound, solvent only (DMSO)-treated sample. A lower percentage of MYC protein in a sample with respect to the DMSO-treated sample indicates greater percentage reduction in MYC protein level due to the test compound, and vice versa.
A general note: Immunoblotting shows a protein as a band on a membrane.

The test system of the next test is HepG2. Nature of the test: CCK-8 cell viability assay, HepG2. To be noted: Homo sapiens; CCK-8, HepG2, 2-day or 3-day incubation, cytotoxic effect.
Test [2] has as its system MYC protein. Nature of the test: MYC HTRF assay, MYC protein level in human cell lines. The settings on record: about 20 μM, 2-day incubation, human cell lines (e.g., A549, HepG2), vs DMSO-treated sample. Here is the method: The MYC homogenous time-resolved fluorescence (HTRF) assay kit (CisBio/Perkin Elmer 63ADK053PEG) is used to quantify the level of MYC protein in human cell lines (e.g., A549, HepG2) following treatment with test compounds, according to the following protocol. Human cells cultured in DMEM-10% FBS media are seeded at 20,000 cells per well in a 96-well plate. After 1 day, the cells are treated with test compounds at a final concentration of about 20 μM. After a 2-day incubation period, the supernatant is removed from the wells and the HTRF assay is carried out according to the kit manufacturer's protocol. In brief, lysis buffer #4 is added to create cell lysates. 10 μL of cell lysate is added to 10 μL of premixed antibody solution (anti-human My c-Eu cryptate antibody and anti-human Myc-d2 antibody) prepared in detection buffer #3 in a 384-well low-volume white-walled plated. After 3 h of incubation, fluorescence readings are taken at the emission wavelengths of donor and acceptor fluorophores (620 nm and 665 nm respectively) using a HTRF-compatible plate reader. The ratio of acceptor and donor fluorescence emission signals for each sample is calculated by dividing the fluorescence signal at 665 nm by the signal at 620 nm, and further normalized by dividing with the concentration of total protein in that sample as determined by the BCA assay. The values so obtained are presented as a percentage of that of the no-compound, solvent only (DMSO)-treated samples. A lower percentage of MYC protein in a sample with respect to the DMSO-treated sample indicates greater percentage reduction in MYC protein level due to the test compound, and vice versa.

Another test has as its system MYC RNA. Put plainly: RT-qPCR of MYC RNA in human cancer cell lines. To be noted: 24 h, about 1 μM, 1-day incubation, e.g., A549, HepG2, beta-actin normalized, vs DMSO, read-out: % reduction of MYC RNA. Here is the method:
The level of reduction of MYC RNA following treatment with test compounds is assessed using RT-qPCR according to the following protocol. The human cancer cell lines (e.g., A549, HepG2) are seeded at 20,000 cells per well in a 96-well plate. After 1 day, the cells are treated with test compounds at a final concentration of about 1 μM. After a 1-day incubation period, the supernatant is removed from the wells and lysis solution from the Cells-to-CT 1-Step Power SYBR Green Kit (Invitrogen A25599) is added to create cell lysates, according to the kit manufacturer's protocol. The kit manufacturer's protocol is then followed to perform RT-qPCR for each sample using a pair of MYC-specific primers (e.g., SEQ ID NO: 4 and SEQ ID NO: 5) to detect MYC RNA, as well as a pair of beta-actin-specific primers (e.g., SEQ ID NO: 6 and SEQ ID NO: 7) to detect beta-actin RNA, which serves as a loading control. The relative expression levels of MYC and beta-actin RNAs are calculated using a standard curve generated from a dilution series of untreated cell lysates. The normalized level of MYC RNA following treatment with a test compound is calculated by dividing the relative expression level of MYC in the sample by the relative expression level of beta actin in the same sample. The value so obtained is presented as a percentage of that of the no-compound, solvent only (DMSO)-treated sample. A lower percentage of MYC RNA in a sample with respect to the DMSO-treated sample indicates greater percentage reduction in MYC RNA levels due to the test compound, and vice versa.
In general terms: Quantitative PCR measures a nucleic acid by following its amplification.

Method for HepG2: The effect of test compounds on cell viability is determined using the CCK-8 assay kit (Dojindo CK04-1000) according to the following protocol. The human cancer cell lines (e.g., A549, HepG2, JeKo-1, MDA-MB-231, etc.) and non-cancer human cell lines (e.g., HEK-293, HaCaT, etc.), are seeded at 20,000 cells per well in a 96-well plate. After 1 day, the cells are treated with test compounds at various final concentrations (e.g., 10 nM, 31.6 nM, 100 nM, 316 nM, 1 μM, 3.16 μM, 10 μM, 20 μM, etc.). After a 2-day or 3-day incubation period, 10 μL of CCK-8 solution, which contains the WST-8 dye, is added to each well according to the kit manufacturer's protocol. After incubation for 1-4 hours, the absorbance at 450 nm is measured using a microplate reader. The absorbance at 450 nm measures the amount of WST-8 that is reduced to WST-8 formazan by cellular dehydrogenases, which is directly proportional to the number of living cells. The cytotoxic effect of test compounds at different concentrations is calculated by subtracting from 1 the ratio of absorbance of the compound-treated sample at 450 nm to that of the no-compound, solvent only (DMSO)-treated sample. […] The IC50 values for the cytotoxic effect of each test compound in A549, HepG2, JeKo-1, and/or MDA-MB-231 cells are determined by plotting a dose-response curve to calculate the concentration of test compound that produces half of the maximum cytotoxic effect.

Regarding `Cc1nc(N2CC(n3nc(-c4ccncc4)ccc3=O)C2)c2cnn(C)c2n1` [2-(1-(1,6-dimethyl-1H-pyrazolo[3,4-d]pyrimidin-4-yl)azetidin-3-yl)-6-(pyridin-4-yl)pyridazin-3(2H)-one], the “% reduction of MYC protein” value with MYC protein [1] was determined as 19%.

Regarding `Cc1cncc(N2CCC(Cn3nc(-n4cncn4)ccc3=O)CC2)n1` [2-((1-(6-methylpyrazin-2-yl)piperidin-4-yl)methyl)-6-(1H-1,2,4-triazol-1-yl)pyridazin-3(2H)-one], in the test on HepG2, the IC50 was 11.2 µM. As to `O=c1ccc(-n2cccn2)nn1CC1CCN(c2ncnc3cc(F)ccc23)CC1` [2-((1-(7-fluoroquinazolin-4-yl)piperidin-4-yl)methyl)-6-(1H-pyrazol-1-yl)pyridazin-3(2H)-one], the “% reduction of MYC protein” value in the test with MYC protein [2] came out at 74%. Also, in the test on MYC RNA, the inhibition at 1 µM was found to be 12%. On to `O=c1ccc(-c2ccncc2)nn1CC1CN(c2ncnc3[nH]cnc23)C1` [2-((1-(9H-purin-6-yl)azetidin-3-yl)methyl)-6-(pyridin-4-yl)pyridazin-3(2H)-one], for which half-maximal inhibition with HepG2 (IC50) required 6 µM. For the molecule `Cc1nc(C)c(-c2ccc(=O)n(CC3CCN(c4ncnc5[nH]cnc45)CC3)n2)s1` [2-((1-(9H-purin-6-yl)piperidin-4-yl)methyl)-6-(2,4-dimethylthiazol-5-yl)pyridazin-3(2H)-one], the “% reduction of MYC protein” value in the test on MYC protein [2] is listed as 17%. In the test with MYC RNA, the inhibition at 1 µM amounted to 1%. In the case of `O=c1ccc(-n2cncn2)nn1CC1CCN(c2ccc3nnc(C(F)(F)F)n3n2)CC1` [6-(1H-1,2,4-triazol-1-yl)-2-((1-(3-(trifluoromethyl)-[1,2,4]triazolo[4,3-b]pyridazin-6-yl)piperidin-4-yl)methyl)pyridazin-3(2H)-one], 5.7 µM corresponded to half-maximal inhibition in the test with HepG2 (IC50). For the same molecule, the “% reduction of MYC protein” value in the test with MYC protein [1] was found to be 29%. Besides, the inhibition at 1 µM in the test on MYC RNA amounted to 20%.

`O=c1ccc(-n2cccn2)nn1CC1CCN(c2ccc3nnc(C(F)(F)F)n3n2)CC1` [6-(1H-pyrazol-1-yl)-2-((1-(3-(trifluoromethyl)-[1,2,4]triazolo[4,3-b]pyridazin-6-yl)piperidin-4-yl)methyl)pyridazin-3(2H)-one] gave an IC50 with HepG2 of 18.5 µM. Moreover, in the test with MYC protein [1], the “% reduction of MYC protein” value came to 33%. The inhibition at 1 µM in the test with MYC RNA came out at 19%.

With `Cc1nc(N2CCC(Cn3nc(-c4sc(C)nc4C)ccc3=O)CC2)c2ccncc2n1` [6-(2,4-dimethylthiazol-5-yl)-2-((1-(2-methylpyrido[3,4-d]pyrimidin-4-yl)piperidin-4-yl)methyl)pyridazin-3(2H)-one], in the test on MYC protein [2], the “% reduction of MYC protein” value is 16%. Also, the inhibition at 1 µM in the test on MYC RNA turned out to be 5%.

With `Cc1cc(N2CCC(Cn3nc(-c4sc(C)nc4C)ccc3=O)CC2)ncn1` [6-(2,4-dimethylthiazol-5-yl)-2-((1-(6-methylpyrimidin-4-yl)piperidin-4-yl)methyl)pyridazin-3(2H)-one], the “% reduction of MYC protein” value in the test on MYC protein [2] is 19%. Further, the inhibition at 1 µM with MYC RNA was 19%. In the test with HepG2, `Cc1cc(C)n(-c2ccc(=O)n(C3CCN(c4nc5cccnc5n4C)CC3)n2)n1` [6-(3,5-dimethyl-1H-pyrazol-1-yl)-2-(1-(3-methyl-3H-imidazo[4,5-b]pyridin-2-yl)piperidin-4-yl)pyridazin-3(2H)-one] returned an IC50 of 5.3 µM. Besides, the “% reduction of MYC protein” value in the test on MYC protein [1] is 24%. `Cc1cc(C)n(-c2ccc(=O)n(CC3CN(c4ccc5nnc(C)n5n4)C3)n2)n1` [6-(3,5-dimethyl-1H-pyrazol-1-yl)-2-((1-(3-methyl-[1,2,4]triazolo[4,3-b]pyridazin-6-yl)azetidin-3-yl)methyl)pyridazin-3(2H)-one]: the “% reduction of MYC protein” value in the test with MYC protein [1] stood at 48%. Further, in the test on MYC RNA, the inhibition at 1 µM was determined as 4%.

A word on the IC50: it is the concentration that gives 50% inhibition. A lower IC50 goes with greater potency.
